The subject of assay [1] is stroke mice. The experiment in a line: Survival of stroke mice after tMCAO with post-stroke treatment. In kind it is in vivo, mouse. As for the experimental part:
First, the efficacy of post-stroke ISP treatment in the C57BL/6 mouse was tested using a proximal middle cerebral artery occlusion (pMCAO) model. Three cohorts of mice (n=59) were subjected to MCAO surgery to induce a large stroke in both striatal and cortical tissue, mimicking a human “malignant” stroke, which tends to be fatal in humans. Stroke mice were subjected to T2 weighted MRI scanning to determine the size of the stroke injury and were grouped blindly into two equally distributed groups that received either daily vehicle (5% DMSO) or daily ISP (20 μg/mouse/day or 30 μg/mouse/day S.C. injections) treatment starting from 24 hours after stroke onset for 6 weeks.
Transient middle cerebra artery occlusion (tMCAO) was induced in male C57BL/6 mice (12 weeks old, 25-30 g) by intraluminal occlusion of the left MCA for 45 min with silicone rubber-coated monofilament (Cat. 602212PK10Re and 602312PK10Re, Doccol Corporation). Briefly, mice were anesthetized with isoflurance. Body temperature was monitored and maintained at 37±0.5° C. by homeothermic blanket control unit (Harvard apparatus). To minimize animal's pain, mice were subcutaneously injected with buprenorphine. […] To ensure consistent and successful blockage of MCA, regional cerebral blood flow was monitored in all stroke animals by Laser Doppler flowmetry (PeriFlux system 5000, Perimed, Sweden). […]

Assay [2] relates to stroke mice. The experiment in a line: Computer automated open field locomotion analysis in stroke mice. The assay is classed as in vivo, mouse. How it is done: First, the efficacy of post-stroke ISP treatment in the C57BL/6 mouse was tested using a proximal middle cerebral artery occlusion (pMCAO) model. Three cohorts of mice (n=59) were subjected to MCAO surgery to induce a large stroke in both striatal and cortical tissue, mimicking a human “malignant” stroke, which tends to be fatal in humans. […]
To test the timing of ISP administration relative to the time of injury, and the corresponding effect on recovery, adult C57bl/6J female and male mice were subjected to transient proximal MCAO surgery (35 min) as described above. […]
Mice motor activities were assessed using Accuscan activity monitor (Columbus, OH, USA) one day before and 3, 7, 14, 21, 35 and 42 days after tMCAO as previously described. […] To avoid observer bias, this locomotor test was automatically monitored by the computer and software. Locomotor activity was calculated by automated Versamax software (Accuscan, Columbus, OH, USA). The following variables were measured: (A) horizontal activity (the total number of beam interruptions that occurred in the horizontal sensors); (B) total distance traveled (cm, the distance traveled by the animals); (C) Vertical activity (the total number of beam interruptions that occurred in vertical sensors).

The test system of assay [3] is stroke mice. The experiment in a line: Adhesive removal test (sensorimotor function) in stroke mice. The settings on record: post-stroke treatment. The assay is classed as in vivo, mouse. As for the experimental part: This test was performed on days 7, 14, 21, 28, 35 and 42 post-stroke in order to examine the sensorimotor deficits. Each mice was placed into transparent cylinder (15 cm diameter) during a habituation period of 1 min Thereafter, two different colored adhesive labels (2.5 mm diameter made by punch, Tough Spots) were applied with equal pressure on each mouse's forepaw. The times required to remove the adhesive labels were measured with a maximum of 2 min. To achieve an optimum level of performance, mice should be trained for 4 days before surgery.

Assay [4] deals with stroke mice. The experiment in a line: Barnes maze test (cognitive function) in stroke mice. The assay is classed as in vivo, mouse. To be noted: 4 weeks after stroke; vs vehicle. The source says: The spatial memory of ischemic mice was examined using Barnes maze (Stoelting Company, WoodDale, IL, USA) 28 days after tMCAO. The maze consists of a 91.5 cm diameter circular platform with 20 holes around the perimeter. Mice were discouraged to idle around aimlessly by blowing fans and a bright light above the platform. At day 0, mice were gently guided to enter the target hole after removing the start chamber. At day 1, mice were trained for 4 trials in 2 sessions to find the escape tunnel placed under the target hole. Once mice entered the target hole, the hole was covered and mice were allowed to stay in it for 2 min. If mice could not locate the target hole within 5 min, mice were guided by the observer to enter the target hole. At day 2, one trial was run and video-taped until the mouse getting into the target hole or stopped at 5 mins when the mouse could not locate the target hole. Time spent to locate the escaping hole and error numbers in finding the hiding hole made by the mouse were measured by an observer in a blinded fashion.

Assay [5] has as its system stroke mice. The experiment in a line: Quantification of brain atrophy in stroke animals. In kind it is in vivo, mouse. The settings on record: post-stroke 6-week brain sections. As for the experimental part:
The post-stroke 6-week brain sections (25 μm) were mounted on PLL-coated slides. The sections were rehydrated in KH2PO4 buffer (pH 4.5) for 10 min, and then stained in pre-warm 10% Giemsa solution for 30 min at 42° C. After a brief rinse with KH2PO4 buffer, sections were dehydrated in absolute ethanol, cleared in xylene and mounted with Histoseal. A set of serial sections was imaged by Path Scan Enabler IV slide scanner. Contralateral and ipsilateral brain areas were quantified using ImageJ software. The calculation formula of atrophy rate is as follows: Σ (contralateral brain area−ipsilateral brain area)/Σ contralateral brain area×100%.

Assay [6] concerns stroke mice. The experiment in a line: DCX+ neuroblast formation in post-stroke mice. The assay is classed as in vivo, mouse. The settings on record: post-stroke treatment; vs vehicle.
For assay [7], the system named is stroke mice. The experiment in a line: Anterograde BDA tracing and quantification of corticospinal tract axonal sprouting. The settings on record: post-stroke treatment; crossed CST fibers at cervical spinal cord, BDA tracing. In kind it is in vivo, mouse. How it is done: Four weeks after tMCAO, mice were anesthetized with 1.5% isoflurane/oxygen mixture and stabilized in a stereotaxic frame. 1.5 μl of the biotin dextran amine (BDA, MW10,000; 10% in PBS, invitrogen) were injected at three sites in the contralesional cortex (coordinates: 1. A/P 0.0 mm, M/L −2 mm, D/V −1 mm; 2.A/P 0.5 mm, M/L-1.5 mm, D/V-1 mm; 3. A/P 0.5 mm, M/L −2 mm, D/V −1 mm) Two weeks later, brain and cervical spinal cord were harvested after cardiac perfusion with PBS followed by 4% paraformaldehyde. After post-fix overnight in 4% paraformaldehyde and cryoprotection in 20% and 30% sucrose, coronal brain sections and transverse spinal cord sections were cut at 30 μm thickness. For the detection of BDA, sections were rinsed in 0.1M PB and incubated in 0.3% H2O2 for 30 min to inactivate endogenous peroxidase, followed by incubation for 2 hours with a Vectastain® ABC kit (Vector Laboratories, Burlingame, CA, USA). Staining was developed with 2,3′ diaminobenziine tetrahydrochloride (0.5 mg/ml in 0.1M PB). The number and length of midline-cross BDA+ fiber were assessed in a blinded manner Sections were analyzed with ImageJ software.

The subject of a further assay is adult NSCs. As to the kind of experiment: Migration of neural stem cells on CSPGs (aggrecan coating). In kind it is cell-based, mouse. To be noted: 2.5 μM peptide, 21 hours, with or without aggrecan coating. The source says: Primary stem cells were obtained from C57BL/6J mice at 5 weeks of age. After euthanization, whole brains were immediately harvested and dissected under microscope to obtain the subventricular zone (SVZ) tissue. After mechanical dissociation with a stab knife, the tissue fragment were processed using trypsin and resuspended as individual cells at a density of 10^4 cell/cm^2 in neurobasal media with growth factors (epidermal growth factor and basic fibroblast growth factor) (NBM-GF). Subsequent passaging of cells were performed using Accutase® (innovative #AT-104, CA, USA) every 7 days until the cells established viable lines, and cellular debris was naturally diminished after each passage. At day 4 of each passage, the proliferating spheres were fed with NBM-GF. We used neurospheres at passage P3-P8 in this study.
To determine the effects of CSPGs on the migration of neural stem cells in vitro, flat-bottom 48-well plates were first coated with poly-L-lysine overnight, followed by a rinsing with water. Aggrecan (A1960, sigma) were coated onto the 48-well plates at the concentration of 1 ug/ml and 10 ug/ml diluted in sterile water overnight, followed by a rinsing with water. The control wells contained poly-L-lysine alone. […] The inner area and total area of neurospheres were measured by ImageJ software. […]

The next assay relates to WT primary NSCs. The experiment in a line: Neural stem cell differentiation assay, neurite outgrowth (MAP2 immunostaining). To be noted: 2.5 μM peptide, differentiated in vitro for 5 days. In kind it is cell-based, mouse. As for the experimental part:
Briefly, glass coverslips in an untreated 24-well plate were coated with poly-ornithine and laminin After splitting neurospheres during passaging, individual cells were plated at a density of 10^4 cells/cm^2 in 500 μl of NBM-GF. Every other day, 250 μl of media was removed from each well and 300 μl of fresh NBM-GF was added. When the attached cell reached approximately 70% confluency (around day 5), all NBM-GF within each well was gently removed and immediately replaced with neurobasal media without growth factor (NBM) with ISP peptide (2.5 μM) or scramble peptide (2.5 μM). Each well was fed daily by removing 250 μl of the media and adding 300 μl of the media containing ISP or scramble peptide. On Day 5 after complete replacement of the NBM-GF, the wells were fixed with 4% paraformaldehyde for 15 min at room temperature and stored in phosphate-buffered saline at 4° C. until staining.
Cells cultured on coverslip were fixed in 4% PFA for 15 min, permeabilized in 0.1% Triton-X100 for 10 min and then incubated in 10% normal goat serum for 1 hour. […] Three coverslips were analyzed per condition. Random selections of field in each coverslip were chosen and imaged by Stereo Investigator Software (MBF Bioscience, Williston, VT, USA), and quantitative data was obtained by using NIH ImageJ software.

With “GRKKRRQRRRCDMAEHMERLKANDSLKLSQEYESI [ISP]”, the “survival of stroke animals over time” value with stroke mice [1] (continuous post-stroke treatment started 24 hours post-stroke, tMCAO mice, vehicle 44.828%) is on record as 67.742%. In the assay on stroke mice [1] (treatment initiated at 24 hours post stroke, daily S.C., vs vehicle), the “survival rate of stroke animals” value was “improve the survival rate of stroke animals significantly”. In addition, in the assay on stroke mice [2] (treatment from 24 h post-stroke, 2-4 weeks after stroke, vs vehicle), the “locomotor function (total distance travelled, total horizontal activity, total vertical activity)” value is “significantly increased”. Also, the “open field locomotion performance (total distance, horizontal activity, vertical activity), delayed treatment” value in the assay with stroke mice [2] (treatment initiated 7 days post stroke, 1 mg/kg/day for 3 weeks, by week four) is listed as “significant effects in improved performance”. The “speed of tape removal, affected limb” value with stroke mice [3] (affected front paw, vs vehicle) is on record as “significantly improved the speed”. For the same sequence, in the assay on stroke mice [3] (unaffected front paw), the “tape removal, unaffected limb” value was “without any obvious effects”. In addition, in the assay on stroke mice [4], the “error trials to find the escape hole in the Barnes maze” value is “less error trials” and the “time to find the escape hole in the Barnes maze” value is “significantly less time”. The “chronic atrophy of brain after stroke” value in the assay with stroke mice [5] was “decreases the chronic atrophy of brain”. Also, the “DCX+ neuroblasts near the lateral ventricle and adjacent striatal tissues” value in the assay with stroke mice [6] is “enhanced”. In the assay on stroke mice [7], the “axonal sprouting from contralateral corticospinal tract” value was “enhanced”. Further, in the assay on adult NSCs, the “migration of adult NSCs (normalized migration index)” value is “alleviates the inhibition of CSPGs on NSCs migration”. For the same sequence, in the assay with WT primary NSCs, the “neurite outgrowth (neurite length) in differentiated NSCs” value was “consistently increased neurite outgrowth”.

“GRKKRRQRRRCIREDDSLMLYALAQEKKESNMHES [scrambled ISP peptide, reference compound]”: in the assay with WT primary NSCs, the “neurite outgrowth (neurite length) in differentiated NSCs” value is listed as “no effects”.

(Values after patent US12138300B2, “Methods and compositions for inducing neural plasticity” (CASE WESTERN RESERVE UNIVERSITY, priority 2018, dated 2024).)
